Assay results from ChEMBL document CHEMBL1949630, “Discovery of benzodihydroisofurans as novel, potent, bioavailable and brain-penetrant prolylcarboxypeptidase inhibitors” (Bioorg Med Chem Lett, 2012).
pIC50: −log10 of the molar value.

Legend:
[1] = biological target: T1, Lysosomal Pro-X carboxypeptidase (Mus musculus, UniProt Q7TMR0); assay: Inhibition of mouse PrCP
T1 sequence (Q7TMR0 whole entry): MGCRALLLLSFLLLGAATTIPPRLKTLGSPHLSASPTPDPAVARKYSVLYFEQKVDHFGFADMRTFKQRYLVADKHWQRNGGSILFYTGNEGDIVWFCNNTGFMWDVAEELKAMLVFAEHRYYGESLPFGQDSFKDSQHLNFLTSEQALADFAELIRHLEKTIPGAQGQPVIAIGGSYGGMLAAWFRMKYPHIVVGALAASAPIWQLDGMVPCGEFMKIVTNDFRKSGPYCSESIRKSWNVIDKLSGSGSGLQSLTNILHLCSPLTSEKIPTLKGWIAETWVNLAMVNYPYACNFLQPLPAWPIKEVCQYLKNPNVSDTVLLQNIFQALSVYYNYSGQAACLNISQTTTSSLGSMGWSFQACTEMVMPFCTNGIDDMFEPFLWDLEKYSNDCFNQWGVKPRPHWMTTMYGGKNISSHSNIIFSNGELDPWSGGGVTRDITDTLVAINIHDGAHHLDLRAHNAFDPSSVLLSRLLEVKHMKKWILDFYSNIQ

[2] = biological target: T1, Lysosomal Pro-X carboxypeptidase; assay: Inhibition of PrCP in mouse plasma assessed as angiotensin 3 cleavage by whole serum shift assay
[3] = Oral bioavailability in C57BL/6 mouse at 2 mg/kg by LC/MS/MS analysis; assay type: ADME, organism-based; details: in vivo
[4] = Clearance in C57BL/6 mouse at 1 mg/kg, iv and 2 mg/kg, po by LC/MS/MS analysis; assay type: ADME, organism-based; details: in vivo
[5] = Volume of distribution at steady state in C57BL/6 mouse at 1 mg/kg, iv and 2 mg/kg, po by LC/MS/MS analysis; assay type: ADME, organism-based; details: in vivo, read-out: Vdss
[6] = Half life in C57BL/6 mouse at 1 mg/kg, iv and 2 mg/kg, po by LC/MS/MS analysis; assay type: ADME, organism-based; details: in vivo
[7] = tested on: Mus musculus; assay: Dose normalized AUC in C57BL/6 mouse at 2 mg/kg by LC/MS/MS analysis; assay type: ADME, organism-based; parameters: dose 2 mg/kg; details: in vivo
[8] = Oral bioavailability in C57BL/6 mouse at 1 mg/kg by LC/MS/MS analysis; assay type: ADME, organism-based; details: in vivo
[9] = Clearance in C57BL/6 mouse at 0.5 mg/kg, iv and 1 mg/kg, po by LC/MS/MS analysis; assay type: ADME, organism-based; details: in vivo
[10] = Volume of distribution at steady state in C57BL/6 mouse at 0.5 mg/kg, iv and 1 mg/kg, po by LC/MS/MS analysis; assay type: ADME, organism-based; details: in vivo, read-out: Vdss
[11] = Half life in C57BL/6 mouse at 0.5 mg/kg, iv and 1 mg/kg, po by LC/MS/MS analysis; assay type: ADME, organism-based; details: in vivo
[12] = tested on: Mus musculus; assay: Dose normalized AUC in C57BL/6 mouse at 1 mg/kg by LC/MS/MS analysis; assay type: ADME, organism-based; parameters: dose 1 mg/kg; details: in vivo
[13] = Fraction unbound in human plasma; assay type: ADME, cell-free
[14] = Fraction unbound in mouse plasma; assay type: ADME, cell-free

| bioavailability [3] [%] | clearance [4] [mL/min/kg] | Vd [5] [L/kg] | half-life [6] [h] | AUC/dose [7] [µM·kg·h/mg] | clearance [9] [mL/min/kg] | Vd [10] [L/kg] | fraction unbound [13] | fraction unbound [14] | SMILES | pIC50 [1] | pIC50 [2] | bioavailability [8] [%] | half-life [11] [h] | AUC/dose [12] [µM·kg·h/mg] |
| --- | --- | --- | --- | --- | --- | --- | --- | --- | --- | --- | --- | --- | --- | --- |
| 53 | 8.1 | 4.4 | 7 | 2.16 |  |  |  |  | FC(F)(F)Oc1ccc(CN2CCC3(CC2)OC(c2cc(Cl)cc(Cl)c2)c2ccccc23)cc1 (centres undefined) | 9.00 | < 6.00 |  |  |  |
|  |  |  |  |  | 69 | 19 |  |  | CC(c1ccc(F)cn1)N1CCC2(CC1)OC(c1cc(Cl)cc(Cl)c1)c1cccnc12 (centres undefined) | 8.96 | 7.85 | 5.4 | 4 | 0.028 |
|  |  |  |  |  | 30 | 14 |  |  | FC(F)(F)Oc1ccc(CN2CCC3(CC2)OC(c2ccc(Cl)cn2)c2ccccc23)cc1 (racemic) | 7.60 |  | 35 | 6.5 | 0.46 |
|  |  |  |  |  | 31 | 14 |  |  | CC(c1ccc(F)cn1)N1CCC2(CC1)OC(c1cc(Cl)cc(Cl)c1)c1ccccc12 (racemic) | 9.51 | 7.05 | 22 | 5.9 | 0.27 |
|  |  |  |  |  | 126 | 20 |  |  | OCC(c1ccccc1)N1CCC2(CC1)OC(c1cc(Cl)cc(Cl)c1)c1cccnc12 (racemic) | 6.96 |  | 17 | 2.3 | 0.05 |
|  |  |  |  |  | 38 | 7.3 |  |  | CC(C)(O)C(c1ccccc1)N1CCC2(CC1)OC(c1cc(Cl)cc(Cl)c1)c1cccnc12 (racemic) | 8.28 |  | 16 | 3.4 | 0.11 |

Further lines, the molecule ahead of its results:

| SMILES | bioavailability [3] [%] | clearance [4] [mL/min/kg] | Vd [5] [L/kg] | half-life [6] [h] | AUC/dose [7] [µM·kg·h/mg] | clearance [9] [mL/min/kg] | Vd [10] [L/kg] | fraction unbound [13] | fraction unbound [14] | pIC50 [1] | pIC50 [2] | bioavailability [8] [%] | half-life [11] [h] | AUC/dose [12] [µM·kg·h/mg] |
| --- | --- | --- | --- | --- | --- | --- | --- | --- | --- | --- | --- | --- | --- | --- |
| Fc1ccc(CN2CCC3(CC2)OC(c2cc(Cl)cc(Cl)c2)c2ccccc23)nc1 (centres undefined) |  |  |  |  |  | 28 | 16 |  |  | 8.60 |  | 22 | 7 | 1.36 |
| FC(F)(F)Oc1ccc(CN2CCC3(CC2)OC(c2cc(Cl)cc(Cl)c2)c2cccnc23)cc1 (centres undefined) |  |  |  |  |  | 28 | 8.2 |  |  | 8.85 |  | 22 | 4 | 0.26 |
| Clc1cc(Cl)cc(C2OC3(CCN(Cc4cc5ccccc5o4)CC3)c3ccccc32)c1 (racemic) |  |  |  |  |  |  |  |  |  | 8.60 | < 6.00 |  |  |  |
| FC(F)(F)c1ccc(CN2CCC3(CC2)OC(c2cc(Cl)cc(Cl)c2)c2ccccc23)nc1 (racemic) |  |  |  |  |  | 51 | 11 |  |  | 9.15 | 6.84 | 16 | 4.1 | 0.11 |
| Clc1cc(Cl)cc(C2OC3(CCN(Cc4ccc(N5CCCC5)cn4)CC3)c3ccccc32)c1 (racemic) |  |  |  |  |  | 7.6 | 4.7 |  |  | 7.77 |  | 23 | 8.5 | 1.22 |
| FC(F)(F)Oc1ccc(CN2CCC3(CC2)OC(c2cc(Cl)cc(Cl)c2)c2ccncc23)cc1 (racemic) |  |  |  |  |  | 35 | 15 |  |  | 8.89 | 6.42 | 29 | 6.1 | 0.28 |
| FC(F)(F)Oc1ccc(CN2CCC3(CC2)OC(c2cc(Cl)cc(Cl)c2)c2cnccc23)cc1 (racemic) |  |  |  |  |  |  |  |  |  | 8.28 | 6.37 |  |  |  |
| FC(F)(F)Oc1ccc(CN2CCC3(CC2)OC(c2ccccn2)c2ccccc23)cc1 (racemic) |  |  |  |  |  | 70 | 26 |  |  | 7.70 |  | 25 | 5 | 0.14 |
| FC(F)(F)Oc1ccc(CN2CCC3(CC2)OC(c2cc(Cl)ccn2)c2cccnc23)cc1 (racemic) | 47 | 74 | 28 | 5 | 0.23 |  |  |  |  | 8.24 |  |  |  |  |
| CC(c1ccc(F)cn1)N1CCC2(CC1)OC(c1cc(Cl)ccn1)c1ccccc12 (racemic) |  |  |  |  |  | 96 | 13 |  |  |  |  | 7.8 | 1.7 | 0.032 |
| O=S(=O)(c1ccc(OC(F)(F)F)cc1)N1CCC2(CC1)OC(c1cc(Cl)cc(Cl)c1)c1cccnc12 (racemic) |  |  |  |  |  | 33 | 9.5 | < 0.0006 | < 0.0006 | 8.74 | 6.15 | 36 | 4.8 | 0.33 |
| CC(c1ccc(F)cn1)N1CCC2(CC1)OC(c1cc(Cl)ccn1)c1cccnc12 (racemic) |  |  |  |  |  | 127 | 17 |  |  | 7.97 | 7.72 | 2.6 | 2.1 | 0.008 |
| CC(C)(c1ccc(OC(F)(F)F)cc1)N1CCC2(CC1)OC(c1cc(Cl)ccn1)c1cccnc12 (racemic) |  |  |  |  |  |  |  |  |  | 9.41 | 6.45 | 41 | > 8 | 0.41 |
| O=S(=O)(c1ccc(C(F)(F)F)cn1)N1CCC2(CC1)OC(c1cc(Cl)cc[n+]1[O-])c1ccccc12 (racemic) |  |  |  |  |  | 87 | 12 | 0.05 | 0.025 | 9.96 |  | 23 | 2.1 | 0.1 |
| [O-][n+]1ccc(Cl)cc1C1OC2(CCN(Cc3ccc(OC(F)(F)F)cc3)CC2)c2ccccc21 (single isomer, unassigned) | 72 | 57 | 27 | 5.6 | 0.43 |  |  | 0.006 | 0.007 | 9.42 |  |  |  |  |
